Data taken from ChEMBL document CHEMBL1201862, “PubChem BioAssay data set” (2004).
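Briefly, cells in 96-well plates were exposed to five compound concentrations for 48 h, and endpoints were estimated by linear interpolation. GI50 marks 50% less growth.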 Activity calls are given as the source filed them. Cut-off read from the data, not from the text of the source: active = GI50 up to about 1.1 µM and inactive = higher.

Legend:
Test in all cases: NCI anticancer screen, dose series, 48 h
[1] = system: LOX IMVI
[2] = system: HCC 2998
[3] = system: SF-295
[4] = system: ACHN
[5] = system: 786-0
[6] = system: SF-539
[7] = system: NCI-H460
[8] = system: IGROV-1
[9] = system: OVCAR-4
[10] = system: CCRF-CEM
[11] = system: OVCAR-3
[12] = system: SNB-75
[13] = system: UACC-62
[14] = system: RXF 393
[15] = system: HCT-15
[16] = system: HT-29
[17] = system: A498
[18] = system: M14
[19] = system: RPMI-8226
[20] = system: HOP-92

Compound	GI50 [1]	GI50 [2]	GI50 [3]	GI50 [4]	GI50 [5]	GI50 [6]	GI50 [7]	GI50 [8]	GI50 [9]	GI50 [10]	GI50 [11]	GI50 [12]	GI50 [13]	GI50 [14]	GI50 [15] [µM]	GI50 [16]	GI50 [17]	GI50 [18]	GI50 [19]	GI50 [20]
CC(=O)O[C@H]1C(=O)N(c2cc3c4ccccc4ccc3c3ccccc23)[C@@H]1c1ccccc1	4.34 µM (inactive)	5.04 µM (inactive)	3.64 µM (inactive)	6.38 µM (inactive)	3.79 µM (inactive)	3.89 µM (inactive)	4.31 µM (inactive)	2.11 µM (inactive)	4.66 µM (inactive)	3.76 µM (inactive)	1.71 µM (inactive)	2 µM (inactive)	3.15 µM (inactive)	2.72 µM (inactive)	3.85	2.64 µM (inactive)	21.8 µM (inactive)	4.38 µM (inactive)	2.23 µM (inactive)	17.5 µM (inactive)
COc1cc2c(/C=C3/C(=O)N(C)c4ccc(O)cc43)c(Cl)[nH]c2cc1C	0.594 µM (active)	0.373 µM (active)	0.262 µM (active)	0.532 µM (active)	0.362 µM (active)	0.248 µM (active)	0.454 µM (active)	0.733 µM (active)	1.8 µM (inactive)	0.284 µM (active)	0.246 µM (active)	0.439 µM (active)	0.281 µM (active)	0.475 µM (active)	0.426	0.401 µM (active)	2.06 µM (inactive)	0.238 µM (active)	0.35 µM (active)	17.2 µM (inactive)
Cc1cccc2c(=O)c3c(O)cc(O)cc3n(C)c12	> 100 µM (inactive)	> 100 µM (inactive)	> 100 µM (inactive)	> 100 µM (inactive)	> 100 µM (inactive)	> 100 µM (inactive)	> 100 µM (inactive)	> 100 µM (inactive)	> 100 µM (inactive)	> 100 µM (inactive)	> 100 µM (inactive)	85.7 µM (inactive)	> 100 µM (inactive)	> 100 µM (inactive)	> 100	> 100 µM (inactive)	7.29 µM (inactive)	> 100 µM (inactive)	> 100 µM (inactive)	91.4 µM (inactive)
CC1=C(C(=O)Nc2ccccc2C)C(c2ccccc2O)C(C(=O)Nc2ccccc2C)=C(C)N1	18.6 µM (inactive)	15.9 µM (inactive)	18.6 µM (inactive)	22.3 µM (inactive)	15.3 µM (inactive)	17.3 µM (inactive)	17.1 µM (inactive)	17.6 µM (inactive)	22.2 µM (inactive)	24.6 µM (inactive)	17.3 µM (inactive)	24.5 µM (inactive)	15.8 µM (inactive)	25.6 µM (inactive)	16	25.7 µM (inactive)	21.4 µM (inactive)	18.2 µM (inactive)	20.3 µM (inactive)	51.4 µM (inactive)
CCOC(=O)NC1C2CC(=O)OC(O2)C1OC(C)=O (stereo not given)	> 100 µM (inactive)	> 100 µM (inactive)	> 100 µM (inactive)	> 100 µM (inactive)	> 100 µM (inactive)	> 100 µM (inactive)	> 100 µM (inactive)	59.7 µM (inactive)	> 100 µM (inactive)	> 100 µM (inactive)	> 100 µM (inactive)	> 100 µM (inactive)	> 100 µM (inactive)	> 100 µM (inactive)	> 100	> 100 µM (inactive)	> 100 µM (inactive)	> 100 µM (inactive)	> 100 µM (inactive)	> 100 µM (inactive)
Cc1c2nc3ccccc3sc-2cc(=O)c1C	29.8 µM (inactive)	> 100 µM (inactive)	61.2 µM (inactive)	48.9 µM (inactive)	> 100 µM (inactive)	44.9 µM (inactive)	12.4 µM (inactive)	> 56.2 µM (inactive)	65.3 µM (inactive)	20.9 µM (inactive)	35.3 µM (inactive)	52.6 µM (inactive)	15.5 µM (inactive)	90.8 µM (inactive)	12.9	> 77.3 µM (inactive)	> 100 µM (inactive)	55.3 µM (inactive)	39.8 µM (inactive)	> 65.9 µM (inactive)
O=C(CC(C(=O)c1ccoc1)c1ccco1)c1ccco1 (stereo not given)	> 100 µM (inactive)	> 100 µM (inactive)	> 100 µM (inactive)	> 100 µM (inactive)	> 100 µM (inactive)	> 100 µM (inactive)	> 100 µM (inactive)	> 100 µM (inactive)	43.1 µM (inactive)	24.2 µM (inactive)	> 100 µM (inactive)	> 100 µM (inactive)	> 100 µM (inactive)	> 100 µM (inactive)	> 100	> 100 µM (inactive)	> 100 µM (inactive)	> 100 µM (inactive)	> 100 µM (inactive)	> 100 µM (inactive)
Cc1c2c(OCCN3CCCCC3)nn(C)c(=O)c2c(C)n1-c1ccccc1	21.8 µM (inactive)	28.1 µM (inactive)	21.2 µM (inactive)	28.5 µM (inactive)	18.8 µM (inactive)	29.4 µM (inactive)	39.2 µM (inactive)	70.5 µM (inactive)	63.8 µM (inactive)	35.7 µM (inactive)	77.6 µM (inactive)	19.5 µM (inactive)	25.8 µM (inactive)	33.4 µM (inactive)	32	30.9 µM (inactive)	16.4 µM (inactive)	18.5 µM (inactive)	23.6 µM (inactive)	58.9 µM (inactive)
COc1ccc2cc(CNCCCN3CCN(CCCNCc4ccc5cc(OC)ccc5c4)CC3)ccc2c1	0.55 µM (active)	0.24 µM (active)	1.68 µM (inactive)	1.8 µM (inactive)	1.55 µM (inactive)	1.81 µM (inactive)	0.83 µM (active)	1.72 µM (inactive)	1.96 µM (inactive)	0.45 µM (active)	1.63 µM (inactive)	1.62 µM (inactive)	0.569 µM (active)	1.46 µM (inactive)	1.57	0.49 µM (active)	1.66 µM (inactive)	1.6 µM (inactive)	0.276 µM (active)	1.43 µM (inactive)
CN1c2ccc(O)c(O)c2-c2cc(O)cc3c2C1CCC3 (stereo not given)	11.2 µM (inactive)	20.5 µM (inactive)	57.7 µM (inactive)	16.7 µM (inactive)	15.2 µM (inactive)	21.6 µM (inactive)	23.9 µM (inactive)	11.6 µM (inactive)	13.4 µM (inactive)	2.58 µM (inactive)	4.55 µM (inactive)	16.3 µM (inactive)	16.3 µM (inactive)	7.23 µM (inactive)	20.6	19.1 µM (inactive)	> 76.2 µM (inactive)	16.2 µM (inactive)	3.31 µM (inactive)	13.9 µM (inactive)
Cc1cc(S(=O)(=O)Nc2n[nH]c(-c3ccc(Cl)cc3)n2)c(SSc2cc(Cl)c(C)cc2S(=O)(=O)Nc2n[nH]c(-c3ccc(Cl)cc3)n2)cc1Cl	26.2 µM (inactive)	19.6 µM (inactive)	31.7 µM (inactive)	32.1 µM (inactive)	33.7 µM (inactive)	40.8 µM (inactive)	22.4 µM (inactive)	22 µM (inactive)	28.5 µM (inactive)	25.9 µM (inactive)	28.3 µM (inactive)	27.9 µM (inactive)	21.4 µM (inactive)	25.1 µM (inactive)	25.1	23.6 µM (inactive)	24.6 µM (inactive)	39.9 µM (inactive)	37.2 µM (inactive)	25.1 µM (inactive)
C[C@@H](NC1CCCC[C@H]1O)c1ccccc1 (stereo not given in full)	> 100 µM (inactive)	> 100 µM (inactive)	> 100 µM (inactive)	> 100 µM (inactive)	> 100 µM (inactive)	> 100 µM (inactive)	> 100 µM (inactive)	> 100 µM (inactive)	> 100 µM (inactive)	> 100 µM (inactive)	> 100 µM (inactive)	77.6 µM (inactive)	> 100 µM (inactive)	> 100 µM (inactive)	> 100	> 100 µM (inactive)	> 100 µM (inactive)	> 100 µM (inactive)	> 100 µM (inactive)	> 100 µM (inactive)
CCCC(=O)Nc1cc(/C=C/C(=O)N2CC(CCl)c3ccc(N)cc32)n(C)c1 (stereo not given)	0.148 µM (active)	0.0908 µM (active)	0.214 µM (active)	0.0248 µM (active)	0.107 µM (active)	0.22 µM (active)	0.0998 µM (active)	0.229 µM (active)	0.188 µM (active)	0.195 µM (active)	0.268 µM (active)	0.388 µM (active)	0.092 µM (active)	0.0474 µM (active)	0.304	0.284 µM (active)	0.0223 µM (active)	0.337 µM (active)	0.177 µM (active)	0.0964 µM (active)
CCN(CC)CCOc1ccc(C(O)(Cc2ccc(OC)cc2)c2ccccc2)cc1 (stereo not given)	14.3 µM (inactive)	14 µM (inactive)	17.7 µM (inactive)	27.5 µM (inactive)	17.3 µM (inactive)	12.4 µM (inactive)	22.2 µM (inactive)	32.6 µM (inactive)	16.1 µM (inactive)	17.6 µM (inactive)	34.1 µM (inactive)	12.6 µM (inactive)	16.7 µM (inactive)	13.1 µM (inactive)	19.1	3.83 µM (inactive)	18.1 µM (inactive)	14.3 µM (inactive)	13.4 µM (inactive)	14.7 µM (inactive)
